Assay results taken from patent publication US20240158392A1 (Janssen Biotech, Inc., priority 2021, published 2024).

target: SIK2 (Homo sapiens, UniProt Q9H0K1); experiment: SIK2 Enzymatic Assay High Version 2 (High ATP); type: biochemical; conditions: not given
In short: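 At room temperature, enzyme (6 nM, 2× final) was preincubated with compound for 30 min, then 6 mM ATP and 400 μM HDAC5tide (both 2× final) were added for 2 h. ADP formed was measured by ADP-Glo Max (2 h reagent, 1 h detection) using luminescence.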

SIK2, sequence (Q9H0K1 whole entry, species assumed): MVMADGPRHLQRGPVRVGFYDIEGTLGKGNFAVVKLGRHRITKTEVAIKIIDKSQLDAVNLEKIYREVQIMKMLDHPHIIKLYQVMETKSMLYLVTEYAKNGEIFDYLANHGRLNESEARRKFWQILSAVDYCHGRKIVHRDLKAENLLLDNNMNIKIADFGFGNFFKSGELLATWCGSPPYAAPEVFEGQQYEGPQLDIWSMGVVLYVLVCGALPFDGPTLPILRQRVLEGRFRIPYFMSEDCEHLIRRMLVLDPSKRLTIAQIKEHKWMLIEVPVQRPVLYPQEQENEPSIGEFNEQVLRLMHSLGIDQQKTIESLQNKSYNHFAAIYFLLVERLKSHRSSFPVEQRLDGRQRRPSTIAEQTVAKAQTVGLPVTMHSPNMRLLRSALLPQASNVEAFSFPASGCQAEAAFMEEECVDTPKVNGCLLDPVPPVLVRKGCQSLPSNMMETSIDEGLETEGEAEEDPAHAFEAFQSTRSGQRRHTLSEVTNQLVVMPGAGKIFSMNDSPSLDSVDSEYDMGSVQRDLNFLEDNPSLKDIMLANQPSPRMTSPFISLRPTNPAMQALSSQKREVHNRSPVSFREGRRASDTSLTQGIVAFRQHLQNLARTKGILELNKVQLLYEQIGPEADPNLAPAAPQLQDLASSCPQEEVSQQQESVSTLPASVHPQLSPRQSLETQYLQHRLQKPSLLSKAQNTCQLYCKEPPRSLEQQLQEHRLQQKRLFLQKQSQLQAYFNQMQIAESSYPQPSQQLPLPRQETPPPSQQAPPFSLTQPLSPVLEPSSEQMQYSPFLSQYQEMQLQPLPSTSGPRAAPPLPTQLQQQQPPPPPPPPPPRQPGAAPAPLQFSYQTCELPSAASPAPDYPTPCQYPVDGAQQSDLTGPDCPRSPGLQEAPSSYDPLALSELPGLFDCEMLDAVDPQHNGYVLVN

Point of comparison: `Cc1cc(-c2ccn3nc(Nc4cc(C(F)(F)F)nn4C)cc3c2)c(O[C@H]2C[C@H]3COC[C@@H](C2)N3C)cn1` [Example 174, N-(1-methyl-3-(trifluoromethyl)-1H-pyrazol-5-yl)-5-(2-methyl-5-(((1R,5S,7s)-9-methyl-3-oxa-9-azabicyclo[3.3.1]nonan-7-yl)oxy)pyridin-4-yl)pyrazolo[1,5-a]pyridin-2-amine], IC50 0.108 µM. Against it:
- Cc1cc(-c2ccn3nc(Nc4cnn(C(F)F)c4)cc3c2)c(O[C@H]2C[C@H]3COC[C@@H](C2)N3C)cn1 [Example 116, N-(1-(difluoromethyl)-1H-pyrazol-4-yl)-5-(2-methyl-5-(((1R,5S,7s)-9-methyl-3-oxa-9-azabicyclo[3.3.1]nonan-7-yl)oxy)pyridin-4-yl)pyrazolo[1,5-a]pyridin-2-amine] — lower, < 0.000847 µM
- Cc1cc(-c2ccn3nc(Nc4ccc(C(=O)NCCO)cn4)cc3c2)c(O[C@H]2C[C@H]3COC[C@@H](C2)N3)cn1 [Example 369, N-(2-hydroxyethyl)-6-[[5-[2-methyl-5-[[(1S,5R,7s)-3-oxa-9-azabicyclo[3.3.1]nonan-7-yl]oxy]-4-pyridyl]pyrazolo[1,5-a]pyridin-2-yl]amino]pyridine-3-carboxamide] — 66-fold lower, 0.00164 µM
- Cc1cc(-c2ccn3nc(Nc4cc(C(=O)NC(C)C)n(C)n4)cc3c2)c(O[C@H]2C[C@H]3COC[C@@H](C2)N3)cn1 [Example 341, N-isopropyl-2-methyl-5-[[5-[2-methyl-5-[[(1S,5R)-3-oxa-9-azabicyclo[3.3.1]nonan-7-yl]oxy]-4-pyridyl]pyrazolo[1,5-a]pyridin-2-yl]amino]pyrazole-3-carboxamide] — lower, < 0.000847 µM
- Cc1cc(-c2ccn3nc(NC(=O)C4(F)CC4)cc3c2)c(OC[C@H]2CCN2C)cn1 [Example 623, 1-fluoro-N-[5-[2-methyl-5-[[(2R)-1-methylazetidin-2-yl]methoxy]-4-pyridyl]pyrazolo[1,5-a]pyridin-2-yl]cyclopropanecarboxamide] — 17-fold lower, 0.00644 µM
- Cc1cc(-c2ccn3nc(Nc4ccc(C(=O)NCC(C)(C)O)cn4)cc3c2)c(O[C@H]2C[C@H]3COC[C@@H](C2)N3)cn1 [Example 371, N-(2-hydroxy-2-methyl-propyl)-6-[[5-[2-methyl-5-[[(1S,5R,7s)-3-oxa-9-azabicyclo[3.3.1]nonan-7-yl]oxy]-4-pyridyl]pyrazolo[1,5-a]pyridin-2-yl]amino]pyridine-3-carboxamide] — lower, < 0.000847 µM
- Cc1cc(-c2ccn3nc(Nc4ccnc(C)n4)cc3c2)c(O[C@H]2C[C@H]3COC[C@@H](C2)N3)cn1 [Example 372, 5-[2-methyl-5-[[(1S,5R,7s)-3-oxa-9-azabicyclo[3.3.1]nonan-7-yl]oxy]-4-pyridyl]-N-(2-methylpyrimidin-4-yl)pyrazolo[1,5-a]pyridin-2-amine] — lower, < 0.000847 µM

same assay, conditions: enzyme 6 nM, 6 mM ATP and 400 μM HDAC5tide (each 2× final concentration); 30 minutes pre-incubation, 2 hours; ADP-Glo Max luminescence; read-out: SIK2 high ATP IC50 (μM) (Test Example 2)

Point of comparison: `O=C(Nc1cc2cc(-c3cc(C(F)(F)F)ncc3OC[C@@H]3CNCCO3)ccn2n1)C1CC1` [Example 601, N-[5-[5-[[(2S)-morpholin-2-yl]methoxy]-2-(trifluoromethyl)-4-pyridyl]pyrazolo[1,5-a]pyridin-2-yl]cyclopropanecarboxamide], IC50 0.116 µM. Against it:
- Cc1cc(-c2ccn3nc(NC(=O)[C@@H]4C[C@H]4C)cc3c2)c(OC[C@@]23CN[C@@H](CO2)C3)cn1 [Example 234, (1R,2R)-2-methyl-N-[5-[2-methyl-5-[[(1R,4R)-5-oxa-2-azabicyclo[2.2.1]heptan-4-yl]methoxy]-4-pyridyl]pyrazolo[1,5-a]pyridin-2-yl]cyclopropanecarboxamide] — 14-fold lower, 0.00837 µM
- Cc1cc(-c2ccn3nc(NC(=O)C4CC4)cc3c2)c(OCC(C)(O)C2CC2)cn1 (single isomer, unassigned) [Example 603, (*S)—N-[5-[5-(2-cyclopropyl-2-hydroxy-propoxy)-2-methyl-4-pyridyl]pyrazolo[1,5-a]pyridin-2-yl]cyclopropanecarboxamide] — 1.7-fold higher, 0.202 µM
- Cc1cc(-c2ccn3nc(NC(=O)C4CC4)cc3c2)c(O[C@H]2CCN[C@@H](C(F)(F)F)C2)cn1 (single isomer, unassigned) [Example 446] — 36-fold lower, 0.00318 µM
- Cc1cc(-c2ccn3nc(Nc4cc(C)nc(C)n4)cc3c2)c(O[C@H]2CCOC(C)(C)C2)cn1 (single isomer, unassigned) [Example 578, (*S)—N-(2,6-dimethylpyrimidin-4-yl)-5-[5-(2,2-dimethyltetrahydropyran-4-yl)oxy-2-methyl-4-pyridyl]pyrazolo[1,5-a]pyridin-2-amine] — within 1.5-fold, 0.0998 µM
- COc1cc(Nc2cc3cc(-c4cc(C)ncc4OCC(C)(C)O)ccn3n2)cc(OC)c1C(=O)NC1CC1 [Example 626, N-cyclopropyl-4-[[5-[5-(2-hydroxy-2-methyl-propoxy)-2-methyl-4-pyridyl]pyrazolo[1,5-a]pyridin-2-yl]amino]-2,6-dimethoxy-benzamide] — within 1.5-fold, 0.0862 µM
- Cc1cc(-c2ccn3nc(Nc4cc(C)c(C(=O)NC5CC5)c(C)n4)cc3c2)c(OCC(C)(C)O)cn1 [Example 335, N-cyclopropyl-6-[[5-[5-(2-hydroxy-2-methyl-propoxy)-2-methyl-4-pyridyl]pyrazolo[1,5-a]pyridin-2-yl]amino]-2,4-dimethyl-pyridine-3-carboxamide] — 5-fold lower, 0.0233 µM
- N-[5-[2-cyano-5-[[(1R,5S,7s)-9-methyl-3-oxa-9-azabicyclo[3.3.1]nonan-7-yl]oxy]-4-pyridyl]pyrazolo[1,5-a]pyridin-2-yl]cyclopropanecarboxamide [Example 656] — within 1.5-fold, 0.132 µM
- Cc1cc(-c2ccn3nc(Nc4cc(C)nc(C)n4)cc3c2)c(OC[C@@H]2CCO[C@@H]2C)cn1 (single isomer, unassigned) [Example 207, N-(2,6-dimethylpyrimidin-4-yl)-5-(2-methyl-5-(((2*R,3*S)-2-methyltetrahydrofuran-3-yl)methoxy)pyridin-4-yl)pyrazolo[1,5-a]pyridin-2-amine] — 13-fold lower, 0.00878 µM
- Cc1cc(-c2ccn3nc(Nc4cc(C)nc(C(C)(C)C)n4)cc3c2)c(OCC(C)(C)O)cn1 [Example 261, 1-[[4-[2-[(2-tert-butyl-6-methyl-pyrimidin-4-yl)amino]pyrazolo[1,5-a]pyridin-5-yl]-6-methyl-3-pyridyl]oxy]-2-methyl-propan-2-ol] — 4.9-fold lower, 0.0239 µM
- Cc1cc(Nc2cc3cc(-c4cc(O[C@H](C)C#N)ncc4O[C@H]4CC[C@H](O)CC4)ccn3n2)nc(C)n1 (relative stereo) [Example 721, (*R)-2-[[4-[2-[(2,6-dimethylpyrimidin-4-yl)amino]pyrazolo[1,5-a]pyridin-5-yl]-5-(4-hydroxycyclohexoxy)-2-pyridyl]oxy]propanenitrile] — 4.4-fold lower, 0.0261 µM
- Cc1cc(-c2ccn3nc(Nc4cc(C)c(=O)n(C)n4)cc3c2)c(OCC(C)(C)O)cn1 [Example 209, 6-[[5-[5-(2-hydroxy-2-methyl-propoxy)-2-methyl-4-pyridyl]pyrazolo[1,5-a]pyridin-2-yl]amino]-2,4-dimethyl-pyridazin-3-one] — 6.8-fold lower, 0.0171 µM
- Cc1cc(Nc2cc3cc(-c4cc(OCC(F)(F)F)ncc4OCC(C)(C)O)ccn3n2)nc(C)n1 [Example 661, 1-[[4-[2-[(2,6-dimethylpyrimidin-4-yl)amino]pyrazolo[1,5-a]pyridin-5-yl]-6-(2,2,2-trifluoroethoxy)-3-pyridyl]oxy]-2-methyl-propan-2-ol] — 1.5-fold lower, 0.0749 µM
- Cc1cc(Nc2cc3cc(-c4cc(OC(F)F)ncc4O[C@H]4CC[C@H](O)CC4)ccn3n2)nc(C)n1 [Example 677, (1r,4r)-4-[[6-(difluoromethoxy)-4-[2-[(2,6-dimethylpyrimidin-4-yl)amino]pyrazolo[1,5-a]pyridin-5-yl]-3-pyridyl]oxy]cyclohexanol] — 120-fold lower, 0.000935 µM
- CC(C)(C#N)COc1cnc(OC(F)F)cc1-c1ccn2nc(Nc3ccc4c(n3)CNCC4)cc2c1 [Example 719, 3-[[6-(difluoromethoxy)-4-[2-(5,6,7,8-tetrahydro-1,7-naphthyridin-2-ylamino)pyrazolo[1,5-a]pyridin-5-yl]-3-pyridyl]oxy]-2,2-dimethyl-propanenitrile] — 5.4-fold lower, 0.0216 µM
- Cc1cc(-c2ccn3nc(Nc4ccc(S(=O)(=O)NC5CC5)cc4)cc3c2)c(O[C@H]2CC[C@H](O)CC2)cn1 [Example 323, N-cyclopropyl-4-[[5-[5-(4-hydroxycyclohexoxy)-2-methyl-4-pyridyl]pyrazolo[1,5-a]pyridin-2-yl]amino]benzenesulfonamide] — 4.2-fold lower, 0.0273 µM
- Cc1cc(-c2ccn3nc(Nc4cc(C)nc(C)n4)cc3c2)c(OC[C@H]2CCC3(CCCC3)O2)cn1 (single isomer, unassigned) [Example 231, (*R)—N-(2,6-dimethylpyrimidin-4-yl)-5-[2-methyl-5-(9-oxaspiro[4.4]nonan-8-ylmethoxy)-4-pyridyl]pyrazolo[1,5-a]pyridin-2-amine] — 14-fold lower, 0.00839 µM
- Cc1cc(-c2ccn3nc(NC(=O)C4CC4)cc3c2)c(OCC(C)(N)C(F)(F)F)cn1 (single isomer, unassigned) [Example 159, (*R)—N-[5-[5-(2-amino-3,3,3-trifluoro-2-methyl-propoxy)-2-methyl-4-pyridyl]pyrazolo[1,5-a]pyridin-2-yl]cyclopropanecarboxamide] — 11-fold lower, 0.0107 µM
- Cc1cc(-c2ccn3nc(Nc4cc(C)nc(C)n4)cc3c2)c(O[C@H]2COC(C)(C)C2)cn1 (single isomer, unassigned) [Example 577, (*R)—N-(2,6-dimethylpyrimidin-4-yl)-5-[5-(5,5-dimethyltetrahydrofuran-3-yl)oxy-2-methyl-4-pyridyl]pyrazolo[1,5-a]pyridin-2-amine] — 1.6-fold lower, 0.0724 µM
- Cc1cc(Nc2cc3cc(-c4cc(OCC(F)F)ncc4OCC(C)(C)C#N)ccn3n2)nc(C)n1 [Example 660, 3-[[6-(2,2-difluoroethoxy)-4-[2-[(2,6-dimethylpyrimidin-4-yl)amino]pyrazolo[1,5-a]pyridin-5-yl]-3-pyridyl]oxy]-2,2-dimethyl-propanenitrile] — 1.6-fold higher, 0.184 µM
- CC#Cc1cc(-c2ccn3nc(Nc4cc(C)nc(C)n4)cc3c2)c(N[C@H]2CC[C@@H](O)CC2)cn1 [Example 362, 4-[[4-[2-[(2,6-dimethylpyrimidin-4-yl)amino]pyrazolo[1,5-a]pyridin-5-yl]-6-prop-1-ynyl-3-pyridyl]amino]cyclohexanol] — 7.2-fold lower, 0.016 µM
